# Data published in patent publication US20140350273A1, “PEDIATRIC USES OF CABAZITAXEL” (AVENTIS PHARMA S.A., priority 2012, published 2014).
# Read-outs that look alike come from different tables or passages of the source.
# Test system: human Ewing's sarcoma DM101
# Format: in vivo
# Settings: for MTTE / T-C: volume endpoint 2000 mm^3; for tumor volume changes from baseline, Median +/− MAD: nude mice bearing DM101 Ewing's sarcoma; for Tumor Volume Data (Day 11) Median / ΔT/ΔC %: day 11
# Procedure: The resultant solution contains 10 mg/mL of cabazitaxel. Stock solution of cabazitaxel was then diluted in 0.9% sodium chloride.
# This efficacy may be quantified, for example, as changes in tumor volume for each treated (T) and control (C) group, which are calculated for each animal and each day by subtracting the tumor volume on the day of first treatment (staging day) from the tumor volume on the specified observation day. This allows calculating the tumor growth inhibition: ΔT/ΔC=(median delta T/median delta C)×100. Individual tumor volume changes from baseline are thereafter analyzed by a non-parametric two-way ANOVA-TYPE (with factors: group and repeated days) followed by a post-hoc contrasts analysis, with Bonferroni-Holm adjustment for multiplicity, comparing all treated groups to the control group. […] A probability less than 5% (p<0.05) was considered as significant.
# Based on the National Cancer Institute (NCl) standards, a ΔT/ΔC≦40% is the minimal level required to declare activity.
# This efficacy may also be quantified by the number of tumor regressions observed after therapy. Individual mice reporting a tumor volume ≦50% of the Day 0 measurement for two consecutive measurements over a seven day period were considered partial responders (PR). Individual mice lacking palpable tumors (<4×4 mm^2 for two consecutive measurements over a seven day period) were classified as complete responders (CR); a CR that persisted until study completion was considered a tumor-free survivor (TFS).
# Efficacy could also be determined at study completion, using tumor growth delay (T-C) in days, which is calculated using the median time to endpoint (MTTE) value for each treatment (T) group versus control (C). A Log Rank multiple comparison test with Bonferroni-Holm adjustment for multiplicity was applied on individual TTE to compare the treated groups to the control group.
# The animals subjected to the experiment are subcutaneously grafted unilaterally with approximately 30 mg of a tumor fragment from low passage pediatric patient-derived tumor xenografts. The animals are implanted with a human patient-derived pediatric tumor xenografted in immuno-compromised mice (Harlan; nu/nu). Several days post tumor implantation, mice are randomized according to their tumor burden to the different groups of treatments and controls. The agents are dosed intravenously at 5.8, 9.3, 15 or 24.2 mg/kg every 4 days for a total of 3 doses (q4d×3) to mice bearing a tumor burden at start of therapy (day 0) ranged from 125 to 250 mm^3.
# Beginning Day 0, animals were observed daily and weighed twice weekly using a digital scale; data including individual and mean gram weights (Mean We±SD), mean percent weight change versus Day 0 were recorded for each group. Animal deaths were recorded daily and designated as drug-related (D), technical (T), tumor related (B), or unknown (U) based on weight loss and gross observation; single agent or combination groups reporting a mean >20% for a period of 7 days and/or >10% mortality were considered above the maximum tolerated dose (MTD) for that treatment on the evaluated regimen.
# The selected tumor model, DM101, was a low passage patient-derived tumor xenograft derived from an Ewing's sarcoma taken from the bone of a patient.
# The following end points were used: • Toxicity was declared at dosages inducing ≧20% body weight loss or ≧10% drug death; • Antitumor efficacy was determined by calculating the ΔT/ΔC value in percent on day 11 post treatment initiation, according to the above mentioned formula; • Individual tumor volume changes from baseline were analyzed by a non-parametric two-way ANOVA-TYPE (with factors: group and repeated day from 4 to 14) followed by a post-hoc contrasts analysis, with Bonferroni-Holm adjustment for multiplicity, comparing all treated groups to the control group on day 11. […] The volume endpoint for T-C calculations was chosen to be 2000 mm^3.
compound,measurement,setting,value
"CC(=O)O[C@@]12CO[C@@H]1C[C@H](O)[C@@]1(C)C(=O)[C@H](O)C3=C(C)[C@@H](OC(=O)[C@H](O)[C@@H](NC(=O)OC(C)(C)C)c4ccccc4)C[C@@](O)([C@@H](OC(=O)c4ccccc4)[C@H]21)C3(C)C [Docetaxel, docetaxel]",#CR,5.8 mg/kg i.v./q4d × 3,0/0/0
same,#PR,5.8 mg/kg i.v./q4d × 3,0/0/0
same,#TFS,5.8 mg/kg i.v./q4d × 3,0/0/0
same,Drug Deaths Total,5.8 mg/kg i.v./q4d × 3,0
same,Weight Nadir %,5.8 mg/kg i.v./q4d × 3,−1%
same,Weight Nadir Day,5.8 mg/kg i.v./q4d × 3,4
same,Tumor Volume Data (Day 11) Median,5.8 mg/kg i.v./q4d × 3,366 mm^3
same,MTTE,5.8 mg/kg i.v./q4d × 3,35 days
same,T-C,5.8 mg/kg i.v./q4d × 3,18.1 days
same,"tumor volume changes from baseline, Median +/− MAD","5.8 mg/kg, DAY 4",51 +/− 38
same,"tumor volume changes from baseline, Median +/− MAD","5.8 mg/kg, DAY 7",98 +/− 79
same,"tumor volume changes from baseline, Median +/− MAD","5.8 mg/kg, DAY 11",202 +/− 183
same,"tumor volume changes from baseline, Median +/− MAD","5.8 mg/kg, DAY 14",446 +/− 393
same,"tumor volume changes from baseline, Median +/− MAD","5.8 mg/kg, DAY 17",640 +/− 621
same,"tumor volume changes from baseline, Median +/− MAD","5.8 mg/kg, DAY 20",813 +/− 756
same,"tumor volume changes from baseline, Median +/− MAD","5.8 mg/kg, DAY 25",766 +/− 478
same,"tumor volume changes from baseline, Median +/− MAD","5.8 mg/kg, DAY 28",1140 +/− 564
same,"tumor volume changes from baseline, Median +/− MAD","5.8 mg/kg, DAY 32",1694 +/− 281
same,#CR,9.3 mg/kg i.v./q4d × 3,4
same,#PR,9.3 mg/kg i.v./q4d × 3,4
same,#TFS,9.3 mg/kg i.v./q4d × 3,1
same,Drug Deaths Total,9.3 mg/kg i.v./q4d × 3,0
same,Weight Nadir %,9.3 mg/kg i.v./q4d × 3,−4%
same,Weight Nadir Day,9.3 mg/kg i.v./q4d × 3,7
same,Tumor Volume Data (Day 11) Median,9.3 mg/kg i.v./q4d × 3,505 mm^3
same,ΔT/ΔC %,9.3 mg/kg i.v./q4d × 3,36.8%
same,MTTE,9.3 mg/kg i.v./q4d × 3,30.5 days
same,T-C,9.3 mg/kg i.v./q4d × 3,13.6 days
same,"tumor volume changes from baseline, Median +/− MAD","9.3 mg/kg, DAY 4",25 +/− 25
same,"tumor volume changes from baseline, Median +/− MAD","9.3 mg/kg, DAY 7",96 +/− 172
same,"tumor volume changes from baseline, Median +/− MAD","9.3 mg/kg, DAY 11",301 +/− 223
same,"tumor volume changes from baseline, Median +/− MAD","9.3 mg/kg, DAY 14",472 +/− 550
same,"tumor volume changes from baseline, Median +/− MAD","9.3 mg/kg, DAY 17",750 +/− 828
same,"tumor volume changes from baseline, Median +/− MAD","9.3 mg/kg, DAY 20",813 +/− 891
same,"tumor volume changes from baseline, Median +/− MAD","9.3 mg/kg, DAY 25",−78 +/− 110
same,"tumor volume changes from baseline, Median +/− MAD","9.3 mg/kg, DAY 28",−78 +/− 36
same,"tumor volume changes from baseline, Median +/− MAD","9.3 mg/kg, DAY 32",−78 +/− 34
same,#CR,15 mg/kg i.v./q4d × 3,4
same,#PR,15 mg/kg i.v./q4d × 3,4
same,#TFS,15 mg/kg i.v./q4d × 3,1
same,Drug Deaths Total,15 mg/kg i.v./q4d × 3,0
same,Weight Nadir %,15 mg/kg i.v./q4d × 3,−6%
same,Weight Nadir Day,15 mg/kg i.v./q4d × 3,14
same,Tumor Volume Data (Day 11) Median,15 mg/kg i.v./q4d × 3,204 mm^3
same,ΔT/ΔC %,15 mg/kg i.v./q4d × 3,8.9%
same,MTTE,15 mg/kg i.v./q4d × 3,50.9 days
same,T-C,15 mg/kg i.v./q4d × 3,34 days
same,CR,15 mg/kg q4d×3 IV,4/9
same,TFS,15 mg/kg q4d×3 IV,1/9
same,"tumor volume changes from baseline, Median +/− MAD","15 mg/kg, DAY 4",26 +/− 25
same,"tumor volume changes from baseline, Median +/− MAD","15 mg/kg, DAY 7",73 +/− 109
same,"tumor volume changes from baseline, Median +/− MAD","15 mg/kg, DAY 11",73 +/− 186
same,"tumor volume changes from baseline, Median +/− MAD","15 mg/kg, DAY 14",73 +/− 251
same,"tumor volume changes from baseline, Median +/− MAD","15 mg/kg, DAY 17",169 +/− 347
same,"tumor volume changes from baseline, Median +/− MAD","15 mg/kg, DAY 20",290 +/− 468
same,"tumor volume changes from baseline, Median +/− MAD","15 mg/kg, DAY 25",−78 +/− 100
same,"tumor volume changes from baseline, Median +/− MAD","15 mg/kg, DAY 28",−84.5 +/− 70
same,"tumor volume changes from baseline, Median +/− MAD","15 mg/kg, DAY 32",−91 +/− 40
same,#CR,24.2 mg/kg i.v./q4d × 3,3
same,#PR,24.2 mg/kg i.v./q4d × 3,4
same,#TFS,24.2 mg/kg i.v./q4d × 3,2
same,Drug Deaths Total,24.2 mg/kg i.v./q4d × 3,0
same,Weight Nadir %,24.2 mg/kg i.v./q4d × 3,−17%
same,Weight Nadir Day,24.2 mg/kg i.v./q4d × 3,14
same,Tumor Volume Data (Day 11) Median,24.2 mg/kg i.v./q4d × 3,300 mm^3
same,ΔT/ΔC %,24.2 mg/kg i.v./q4d × 3,14.9%
same,MTTE,24.2 mg/kg i.v./q4d × 3,32.3 days
same,T-C,24.2 mg/kg i.v./q4d × 3,15.4 days
same,CR,24.2 mg/kg q4d×3 IV,3/9
same,TFS,24.2 mg/kg q4d×3 IV,2/9
same,"tumor volume changes from baseline, Median +/− MAD","24.2 mg/kg, DAY 4",26 +/− 40
same,"tumor volume changes from baseline, Median +/− MAD","24.2 mg/kg, DAY 7",122
same,"tumor volume changes from baseline, Median +/− MAD","24.2 mg/kg, DAY 11",122
same,"tumor volume changes from baseline, Median +/− MAD","24.2 mg/kg, DAY 14",122
same,"tumor volume changes from baseline, Median +/− MAD","24.2 mg/kg, DAY 17",122
same,"tumor volume changes from baseline, Median +/− MAD","24.2 mg/kg, DAY 20",394
same,"tumor volume changes from baseline, Median +/− MAD","24.2 mg/kg, DAY 25",351.5
same,"tumor volume changes from baseline, Median +/− MAD","24.2 mg/kg, DAY 28",681
same,"tumor volume changes from baseline, Median +/− MAD","24.2 mg/kg, DAY 32",254
